COc1ccc(C(=O)O)c(OC)c1
solubility (mole fraction)
Details | 288.15 K | 293.15 K | 298.15 K | 303.15 K | 308.15 K | 313.15 K | 318.15 K | 323.15 K
in ethanol | 0.0116 | 0.0149 | 0.0191 | 0.0244 | 0.0312 | 0.0398 | 0.0507 | 0.0644
in ethyl acetate | 0.0165 | 0.0205 | 0.0253 | 0.0312 | 0.0382 | 0.0467 | 0.0567 | 0.0687
in isobutanol | 0.0059 | 0.0079 | 0.0105 | 0.0139 | 0.0183 | 0.0239 | 0.0311 | 0.0401
in isopropanol | 0.0059 | 0.0081 | 0.0109 | 0.0147 | 0.0195 | 0.0259 | 0.034 | 0.0445
in n-butanol | 0.0086 | 0.0112 | 0.0146 | 0.0188 | 0.0242 | 0.0309 | 0.0393 | 0.0498
in n-propanol | 0.0087 | 0.0114 | 0.015 | 0.0195 | 0.0252 | 0.0325 | 0.0417 | 0.0532

From BigSolDB 2.1
